From patent publication US20260248763A1 (BIO GENUINE (SHANGHAI) BIOTECH CO., LTD, priority 2023, published 2026)

target: T1, OTR (Homo sapiens, UniProt P30559); assay: Ca2+ mobilization in cells stably expressing OTR (FLIPR, antagonist mode); assay type: cell-based; conditions: OTR/HEK293 stably transfected cell line
T1 construct: expressed in transfected cells; host or cells: OTR/HEK293 stably transfected cell line
T1 sequence (P30559 1-389): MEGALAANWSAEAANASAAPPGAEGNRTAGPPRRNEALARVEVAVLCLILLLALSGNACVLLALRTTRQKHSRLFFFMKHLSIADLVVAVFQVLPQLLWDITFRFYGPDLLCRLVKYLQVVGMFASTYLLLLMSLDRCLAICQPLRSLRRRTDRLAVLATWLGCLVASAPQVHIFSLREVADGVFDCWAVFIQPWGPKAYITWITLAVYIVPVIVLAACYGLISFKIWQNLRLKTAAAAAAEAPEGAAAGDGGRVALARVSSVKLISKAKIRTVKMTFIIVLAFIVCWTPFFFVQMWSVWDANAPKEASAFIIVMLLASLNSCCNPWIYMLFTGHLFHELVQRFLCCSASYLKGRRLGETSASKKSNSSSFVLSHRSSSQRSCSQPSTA
From the text: Test Example 1. Determination of the Effect of the Compound of the Present Disclosure on Ca^2+ Mobilization in Cells Stably Expressing OTR
To measure the antagonistic effect of the compound of the present disclosure on OTR activity expressed in the OTR/HEK293 stably transfected cell line.
• DMEM medium (Invitrogen, 11965) • F12 medium (Invitrogen, 11765) • Fetal bovine serum (Excell, FSP500) • Geneticin (Invitrogen, 10131) • Penicillin/Streptomycin (Invitrogen, SV30010) • Fluo-4 Direct kit (Invitrogen, F10471) • 384-well cell plate (Greiner, 781090) • 384-well compound plate (Greiner, 781280)
• FLIPR instrument (Molecular Device) • EHCO instrument (Labcyte) • Cell counter (Beckman, Vi-cell XR)
The cultured cells were washed twice with pre-heated DPBS and digested with appropriate amount of trypsin at 37° C. for 1 minute, and then appropriate amount of culture medium was added to terminate digestion. The cells were centrifuged at 1000 rpm for 5 minutes. The supernatant was gently discarded without disturbing the cell pellet at the bottom. The cells were resuspended in culture medium and 1 mL was taken out for cell counting and viability assessment using Vi-CELL™. The cells were diluted to 1×10^6 cells/mL (20,000 cells/20 μL) with culture medium, seeded into a 384-well cell plate and incubated at 37° C. with 5% CO2 for 16-20 h.
Formulation of 250 mM Probenecid solution: according to the kit instructions, 1 mL of FLIPR buffer salt solution was added to 77 mg of probenecid, prepared fresh just before use. Formulation of Fluo-4 Direct™ (2×, 8 μM) loading buffer: according to the kit instructions, the required amount of Fluo-4 Direct™ was taken out and thawed in advance, 10 mL of FLIPR buffer salt solution and 0.2 mL of 250 mM Probenecid solution were added to each tube, and the mixture was vortexed in the dark for >5 minutes, prepared fresh just before use.
Preparation of agonist reference compound plate: the agonist was diluted 3-fold in 10 points using ECHO, and 750 nL was transferred to the corresponding compound plate using ECHO.
Preparation of reference and test compound plates: the test compound was diluted 3-fold in 10 points with ECHO, and 900 nL was transferred to the corresponding compound plate; the reference compound was diluted 3-fold in 10 points with assay buffer salt solution, and 30 μL was transferred to the compound plate.
30 μL of assay buffer salt solution was added to the corresponding compound plate, and the mixture was centrifuged at 1000 rpm for 1 minute.
The cell plate prepared the day before was taken out of the incubator, and 20 μL of 2×Fluo-4 Direct™ buffer was added to each well, with a total volume of 40 μL.
The plate was incubated in an incubator at 37° C. with 5% CO2 for 50 minutes, and then placed at room temperature for 10 minutes.
The compound plate, cell plate, and pipette tips were placed into the instrument.
For the agonist reference compound plate: the FLIPR instrument software was run, 10 μL of the pre-determined concentration of agonist reference compound was added to the cell plate following the preset protocol, and the fluorescence signal was read. After reading, the data were exported to calculate the EC80 for each cell line, and the agonist at 6×EC80 concentration was prepared.
For the compound plate: the FLIPR instrument software was run, 10 μL of the pre-determined concentration of test compound and the reference compound were added to the cell plate following the preset protocol, and the fluorescence signal was read. 10 μL of the reference compound agonist at 6×EC80 concentration was added to the cell plate, and the fluorescence signal was read. For antagonist detection of the compound, the data were exported using the “Max-Min” and “Read 1 to Maximum allowed” methods in the software, and the data were fitted using Prism.

IC50 | Compound
172 nM | CO/N=C1/C[C@@H](CO)N(C(=O)c2ccc(-c3cccc(C)c3C)cc2C#N)C1 [Example A0131, 5-(2,3-Dimethylphenyl)-2-[(2S, 4Z)-2-(hydroxymethyl)-4-(methoxyimino)pyrrolidine-1-carbonyl]benzonitrile]
1110 nM | CO/N=C1\C[C@@H](CO)N(C(=O)c2ccc(-c3cccc(C)c3C#N)cc2)C1 [Example A0144, (S, E)-4′-(2-(Hydroxymethyl)-4-(methoxyimino)pyrrolidine-1-carbonyl)-3-methyl-[1,1′-biphenyl]-2-carbonitrile]
23.5 nM | CO/N=C1/C[C@@H](CO)N(C(=O)c2ccc(-c3cccc(C)c3C)c(OC3COC3)c2)C1 [Example A0147, (S, Z)-(2′, 3′-Dimethyl-2-(oxetan-3-yloxy)-[1, 1′-biphenyl]-4-yl)(2-(hydroxymethyl)-4-(methoxyimino)pyrrolidin-1-yl)methanone]
17.1 nM | COCCOc1cc(C(=O)N2C/C(=N\OC)C[C@H]2CO)ccc1-c1cccc(C)c1C [Example A0149, (S, Z)-(2-(Hydroxymethyl)-4-(methoxyimino)pyrrolidin-1-yl)(2-(2-methoxyethoxy)-2′, 3′-dimethyl-[1,1′-biphenyl]-4-yl)methanone]
485 nM | CO/N=C1\C[C@@H](CO)N(C(=O)c2ccc(-c3cccc(C)c3C)cc2C#N)C1 [Example A0153, 5-(2,3-Dimethylphenyl)-2-[(2S, 4E)-2-(hydroxymethyl)-4-(methoxyimino)pyrrolidine-1-carbonyl]benzonitrile]
1520 nM | CO/N=C1/C[C@@H](CO)N(C(=O)c2ccc(-c3cccc(C)c3C)c(C(=O)N3CCOCC3)c2)C1 [Example A0158, (25, 4Z)-(2′, 3′-Dimethyl-2-(morpholine-4-carbonyl)-[1, 1′-biphenyl]-4-yl)(2-(hydroxymethyl)-4-(methoxyimino)pyrrolidin-1-yl)methanone]
202 nM | CO/N=C1/C[C@@H](CO)N(C(=O)c2ccc(-c3cccc(C#N)c3C)c3c2OCC(=O)N3C)C1 [Example A0163, (S, Z)-3-(8-(2-(Hydroxymethyl)-4-(methoxyimino)pyrrolidine-1-carbonyl)-4-methyl-3-oxo-3,4-dihydro-2H-benzo[b][1,4]oxazin-5-yl)-2-methylbenzonitrile]
165 nM | CO/N=C1\C[C@@H](CO)N(C(=O)c2ccc(-c3cccc(C)c3C)c(C(=O)NC3COC3)c2)C1 [Example A0179, (S, E)-4-(2-(Hydroxymethyl)-4-(methoxyimino)pyrrolidine-1-carbonyl)-2′, 3′-dimethyl-N-(oxetan-3-yl)-[1,1′-biphenyl]-2-carboxamide]
1480 nM | CO/N=C1/C[C@@H](CO)N(C(=O)c2ccc(-c3cccc(C#N)c3C)c(C3(O)COC3)c2)C1 [Example A0183, 3-(4-[(2S, 4Z)-2-(Hydroxymethyl)-4-(methoxyimino)pyrrolidine-1-carbonyl]-2-(3-hydroxyoxetan-3-yl)phenyl)-2-methylbenzonitrile]
43.9 nM | CO/N=C1/C[C@@H](CO)N(C(=O)c2ccc(-c3cccc(C#N)c3C)c(OCC3CC3)n2)C1 [Example A0188, (S, Z)-3-(2-(Cyclopropylmethoxy)-6-(2-(hydroxymethyl)-4-(methoxyimino)pyrrolidine-1-carbonyl)pyridin-3-yl)-2-methylbenzonitrile]
1510 nM | CO/N=C1/C[C@@H](CO)N(C(=O)c2ccc(-c3cccc(C#N)c3C)c3ncnn23)C1 [Example A0190, (S, Z)-3-(5-(2-(Hydroxymethyl)-4-(methoxyimino)pyrrolidine-1-carbonyl)-[1,2,4]triazolo[1,5-a]pyridin-8-yl)-2-methylbenzonitrile]
403 nM | COCCNc1nc(C(=O)N2C/C(=N\OC)C[C@H]2CO)ccc1-c1cccc(C#N)c1C [Example A0197, (S, Z)-3-(6-(2-(Hydroxymethyl)-4-(methoxyimino)pyrrolidine-1-carbonyl)-2-((2-methoxyethyl)amino)pyridin-3-yl)-2-methylbenzonitrile]
967 nM | CO/N=C1/C[C@@H](CO)N(C(=O)c2ccc(-c3cccc(C#N)c3C)c(N3CCOCC3)n2)C1 [Example A0198, (S, Z)-3-(6-(2-(Hydroxymethyl)-4-(methoxyimino)pyrrolidine-1-carbonyl)-2-morpholinopyridin-3-yl)-2-methylbenzonitrile]
156 nM | CO/N=C1/C[C@@H](CO)N(C(=O)c2ccc(-c3cccc(C#N)c3C(F)F)cc2)C1 [Example A0204, 2-(Difluoromethyl)-3-(4-[(2S, 4Z)-2-(hydroxymethyl)-4-(methoxyimino)pyrrolidine-1-carbonyl]phenyl)benzonitrile]
384 nM | CO/N=C1/C[C@@H](CO)N(C(=O)c2ccc(-c3cccc(C#N)c3C)s2)C1 [Example A0212, 3-(5-[(2S, 4Z)-2-(Hydroxymethyl)-4-(methoxyimino)pyrrolidine-1-carbonyl]thien-2-yl)-2-methylbenzonitrile]
198 nM | CO/N=C1/C[C@@H](CO)N(C(=O)c2cc(OC)c(-c3cccc(C#N)c3C)cn2)C1 [Example A0216, 3-(6-[(2S, 4Z)-2-(Hydroxymethyl)-4-(methoxyimino)pyrrolidine-1-carbonyl]-4-methoxypyridin-3-yl)-2-methylbenzonitrile]
112 nM | CO/N=C1\C[C@@H](CO)N(C(=O)c2ccc(-c3cccc(C#N)c3C)c(OC)n2)C1 [Example A0222, 3-(6-[(2S, 4E)-2-(Hydroxymethyl)-4-(methoxyimino)pyrrolidine-1-carbonyl]-2-methoxypyridin-3-yl)-2-methylbenzonitrile]
483 nM | CO/N=C1/CC[C@@H](CO)N(C(=O)c2ccc(-c3cccc(C#N)c3C)cc2)C1 [Example A0225, (S, Z)-4′-(2-(Hydroxymethyl)-5-(methoxyimino)piperidine-1-carbonyl)-2-methyl-[1,1′-biphenyl]-3-carbonitrile]
1050 nM | CO/N=C1\CCN(C(=O)c2ccc(-c3cccc(C#N)c3C)cc2)[C@H](CO)C1 [Example A0226, (S,E)-4′-(2-(Hydroxymethyl)-4-(methoxyimino)piperidine-1-carbonyl)-2-methyl-[1,1′-biphenyl]-3-carbonitrile]
432 nM | CNC(=O)[C@@H]1C/C(=N/OC)CN1C(=O)c1ccc(-c2cccc(C#N)c2C)cc1 [Example A0228, (S, Z)-1-(3′-Cyano-2′-methyl-[1,1′-biphenyl]-4-carbonyl)-4-(methoxyimino)-N-methylpyrrolidine-2-carboxamide]
394 nM | CNC(=O)[C@@H]1C/C(=N\OC)CN1C(=O)c1ccc(-c2cccc(C#N)c2C)cc1 [Example A0232, (S, E)-1-(3′-Cyano-2′-methyl-[1,1′-biphenyl]-4-carbonyl)-4-(methoxyimino)-N-methylpyrrolidine-2-carboxamide]
242 nM | CO/N=C1\CC[C@@H](CO)N(C(=O)c2ccc(-c3cccc(C#N)c3C)cc2)C1 [Example A0234, (S, E)-4′-(2-(Hydroxymethyl)-5-(methoxyimino)piperidine-1-carbonyl)-2-methyl-[1,1′-biphenyl]-3-carbonitrile]

Compound | IC50
CO/N=C1/C[C@@H](CO)N(C(=O)c2cnc(-c3cccc(C)c3C)c(C(F)(F)F)n2)C1 [Example A0137] | 153 nM
